Data as given in patent US8741836B2, “Polypeptides” (Novo Nordisk A/S, priority 2011, dated 2014).
Starred links: 1 amine or outer side, 2 acyl side, 3 side chain; linkers in the order of their positions; H or OH if unused. Positions of bridges follow the written chain, without caps; N, C: chain ends. Non-standard residues stand in square brackets, D forms with d. Residues, ends and D or L forms follow the SMILES beside them. *: point of attachment. C20 diacid = O=C(O)CCCCCCCCCCCCCCCCCCC(=O)*; γGlu = O=C(O)[C@H](CCC(=O)[*:2])N[*:1]; AEEA = NCCOCCOCC(=O)O

Test: Assay (III) ThT fibrillation assay for physical stability
Type: physicochemical
Conditions: for ThT pH 4.0 lag time: pH 4.0, ThT fibrillation assay
Excerpt: Assay (III)—ThT Fibrillation Assays for the Assessment of Physical Stability of Protein formulations Low physical stability of a polypeptide may lead to amyloid fibril formation, which is observed as well-ordered, thread-like macromolecular structures in the sample eventually resulting in gel formation. This has traditionally been measured by visual inspection of the sample. However, that kind of measurement is very subjective and depending on the observer. Therefore, the application of a small molecule indicator probe is much more advantageous. Thioflavin T (ThT) is such a probe and has a distinct fluorescence signature when binding to fibrils [Naiki et al. (1989) Anal. Biochem. 177, 244-249; LeVine (1999) Methods. Enzymol. […], 274-284]. The time course for fibril formation can be described by a sigmoidal curve with the following expression [Nielsen et al. (2001) Biochemistry 40, 6036-6046]: [formula] Here, F is the ThT fluorescence at the time t. The constant t0 is the time needed to reach 50% of maximum fluorescence. […] Few of those intermediates nucleate to form a template onto which further intermediates may assembly and the fibrillation proceeds. The lag-time corresponds to the interval in which the critical mass of nucleus is built up and the apparent rate constant is the rate with which the fibril itself is formed. Sample Preparation Samples were prepared freshly before each assay. Each sample composition is described in each example. The pH of the sample was adjusted to the desired value using appropriate amounts of concentrated NaOH and HClO4 or HCl. Thioflavin T was added to the samples from a stock solution in H2O to a final concentration of 1 μM. Sample aliquots of 200 μl were placed in a 96 well microtiter plate (Packard OptiPlate™-96, white polystyrene). Usually, four or eight replica of each sample (corresponding to one test condition) were placed in one column of wells. The plate was sealed with Scotch Pad (Qiagen). Incubation and Fluorescence Measurement Incubation at given temperature, shaking and measurement of the ThT fluorescence emission were done in a Fluoroskan Ascent FL fluorescence platereader or Varioskan platereader (Thermo Labsystems). The temperature was adjusted to 37° C. The orbital shaking was adjusted to 960 rpm with an amplitude of 1 mm in all the presented data. Fluorescence measurement was done using excitation through a 444 nm filter and measurement of emission through a 485 nm filter. Each run was initiated by incubating the plate at the assay temperature for 10 min. The plate was measured every 20 minutes for a desired period of time. Between each measurement, the plate was shaken and heated as described. Data Handling The measurement points were saved in Microsoft Excel format for further processing and curve drawing and fitting was performed using GraphPad Prism. The background emission from ThT in the absence of fibrils was negligible. The data points are typically a mean of four or eight samples and shown with standard deviation error bars. Only data obtained in the same experiment (i.e. samples on the same plate) are presented in the same graph ensuring a relative measure of fibrillation between experiments. The data set may be fitted to Eq. (1). However, since full sigmodial curves in this case are not always achieved during the measurement time, the degree of fibrillation is expressed as ThT fluorescence tabulated as the mean of the samples and shown with the standard deviation at various time points. Measurement of Initial and Final Concentrations The polypeptide concentration in each of the tested formulations were measured both before application in the ThT fibrillation assay (“Initial”) and after completion of the ThT fibrillation (“After ThT assay”). Concentrations were determined by reverse HPLC methods using a pramlintide standard as a reference. Before measurement after completion 150 μl was collected from each of the replica and transferred to an Eppendorf tube. […]

ThT pH 4.0 lag time (physical stability in fibrillogenesis assay) [h] | ThT pH 4.0 lag time [h] | Compound
>45 |  | CC[C@H](C)[C@H](NC(=O)[C@@H]1CCCN1C(=O)CNC(=O)[C@H](Cc1ccccc1)NC(=O)[C@H](CO)NC(=O)[C@H](CO)NC(=O)[C@H](CO)NC(=O)[C@H](CO)NC(=O)[C@H](CCCNC(=N)N)NC(=O)[C@H](Cc1cnc[nH]1)NC(=O)[C@H](CC(C)C)NC(=O)[C@H](Cc1ccccc1)NC(=O)[C@H](CCC(=O)O)NC(=O)[C@H](C)NC(=O)[C@H](CC(C)C)NC(=O)[C@H](CCCNC(=N)N)NC(=O)[C@H](CCC(N)=O)NC(=O)[C@@H](NC(=O)[C@H](C)NC(=O)[C@@H]1CSSC[C@H](NC(=O)[C@H](Cc2cnc[nH]2)NC(=O)CC[C@H](NC(=O)CCCCCCCCCCCCCCCCCCC(=O)O)C(=O)O)C(=O)N[C@@H](CC(N)=O)C(=O)N[C@@H]([C@@H](C)O)C(=O)N[C@@H](C)C(=O)N[C@@H]([C@@H](C)O)C(=O)N1)[C@@H](C)O)C(=O)N[C@@H](CC(C)C)C(=O)N1CCC[C@H]1C(=O)N1CCC[C@H]1C(=O)N[C@H](C(=O)N[C@@H](CC(=O)O)C(=O)N[C@H](C(=O)NCC(=O)N[C@@H](CO)C(=O)N[C@@H](CC(=O)O)C(=O)N[C@H](C(=O)N[C@@H](Cc1ccc(O)cc1)C(N)=O)[C@@H](C)O)C(C)C)[C@@H](C)O [Example 9, N-alpha-[(S)-4-Carboxy-4-(19-carboxynonadecanoylamino)butyryl]-[His1,Glu14,His17,Arg18,Ser21,Ser22,Asp31,Asp35]-pramlintide] ({C20 diacid-γGlu}-HCNTATCATQRLAEFLHRSSSSFGPILPPTDVGSDTY-NH2; disulfide 2-7)
 | >45 | CC[C@H](C)[C@H](NC(=O)[C@@H]1CCCN1C(=O)CNC(=O)[C@H](Cc1ccccc1)NC(=O)[C@H](CC(N)=O)NC(=O)[C@H](CC(N)=O)NC(=O)[C@H](CO)NC(=O)[C@H](CO)NC(=O)[C@H](Cc1c[nH]cn1)NC(=O)[C@H](Cc1c[nH]cn1)NC(=O)[C@H](CC(C)C)NC(=O)[C@H](Cc1ccccc1)NC(=O)[C@H](CCC(=O)O)NC(=O)[C@H](C)NC(=O)[C@H](CC(C)C)NC(=O)[C@H](CCCNC(=N)N)NC(=O)[C@H](CCC(N)=O)NC(=O)[C@@H](NC(=O)[C@H](C)NC(=O)[C@@H]1CSSC[C@H](NC(=O)[C@H](Cc2c[nH]cn2)NC(=O)[C@H](Cc2c[nH]cn2)NC(=O)[C@H](Cc2c[nH]cn2)NC(=O)CC[C@H](NC(=O)CCCCCCCCCCCCCCCCCCC(=O)O)C(=O)O)C(=O)N[C@@H](CC(N)=O)C(=O)N[C@@H]([C@@H](C)O)C(=O)N[C@@H](C)C(=O)N[C@@H]([C@@H](C)O)C(=O)N1)[C@@H](C)O)C(=O)N[C@@H](CC(C)C)C(=O)N1CCC[C@H]1C(=O)N1CCC[C@H]1C(=O)N[C@H](C(=O)N[C@@H](CC(N)=O)C(=O)N[C@H](C(=O)NCC(=O)N[C@@H](CO)C(=O)N[C@@H](Cc1c[nH]cn1)C(=O)N[C@H](C(=O)N[C@@H](Cc1ccc(O)cc1)C(N)=O)[C@@H](C)O)C(C)C)[C@@H](C)O [Example 31, N-alpha-[(S)-4-Carboxy-4-(19-carboxynonadecanoylamino)butyryl]-His-His-[His1,Glu14,His17,His35]-pramlintide] ({C20 diacid-γGlu}-HHHCNTATCATQRLAEFLHHSSNNFGPILPPTNVGSHTY-NH2; disulfide 4-9)
 | >45 | CC[C@H](C)[C@H](NC(=O)[C@@H]1CCCN1C(=O)CNC(=O)[C@H](Cc1ccccc1)NC(=O)[C@H](CC(N)=O)NC(=O)[C@H](CC(N)=O)NC(=O)[C@H](CO)NC(=O)[C@H](CO)NC(=O)[C@H](Cc1c[nH]cn1)NC(=O)[C@H](Cc1c[nH]cn1)NC(=O)[C@H](CC(C)C)NC(=O)[C@H](Cc1ccccc1)NC(=O)[C@H](CCC(=O)O)NC(=O)[C@H](C)NC(=O)[C@H](CC(C)C)NC(=O)[C@H](CCCNC(=N)N)NC(=O)[C@H](CCC(N)=O)NC(=O)[C@@H](NC(=O)[C@H](C)NC(=O)[C@@H]1CSSC[C@H](NC(=O)[C@H](Cc2c[nH]cn2)NC(=O)[C@H](Cc2c[nH]cn2)NC(=O)[C@H](Cc2c[nH]cn2)NC(=O)CC[C@H](NC(=O)CCCCCCCCCCCCCCCCCCC(=O)O)C(=O)O)C(=O)N[C@@H](Cc2c[nH]cn2)C(=O)N[C@@H]([C@@H](C)O)C(=O)N[C@@H](C)C(=O)N[C@@H]([C@@H](C)O)C(=O)N1)[C@@H](C)O)C(=O)N[C@@H](CC(C)C)C(=O)N1CCC[C@H]1C(=O)N1CCC[C@H]1C(=O)N[C@H](C(=O)N[C@@H](CC(N)=O)C(=O)N[C@H](C(=O)NCC(=O)N[C@@H](CO)C(=O)N[C@@H](Cc1c[nH]cn1)C(=O)N[C@H](C(=O)N[C@@H](Cc1ccc(O)cc1)C(N)=O)[C@@H](C)O)C(C)C)[C@@H](C)O [Example 32, N-alpha-[(S)-4-Carboxy-4-(19-carboxynonadecanoylamino)butyryl]-His-His-[His1,His3,Glu14,His17,His35]-pramlintide] ({C20 diacid-γGlu}-HHHCHTATCATQRLAEFLHHSSNNFGPILPPTNVGSHTY-NH2; disulfide 4-9)
>45 |  | CC[C@H](C)[C@H](NC(=O)[C@@H]1CCCN1C(=O)CNC(=O)[C@H](Cc1ccccc1)NC(=O)[C@H](CC(N)=O)NC(=O)[C@H](C)NC(=O)[C@H](CO)NC(=O)[C@H](CO)NC(=O)[C@H](CCCNC(=N)N)NC(=O)[C@H](Cc1cnc[nH]1)NC(=O)[C@H](CC(C)C)NC(=O)[C@H](Cc1ccccc1)NC(=O)[C@H](CCC(=O)O)NC(=O)[C@H](C)NC(=O)[C@H](CC(C)C)NC(=O)[C@H](CCCNC(=N)N)NC(=O)[C@H](CCC(N)=O)NC(=O)[C@@H](NC(=O)[C@H](C)NC(=O)[C@@H]1CSSC[C@H](NC(=O)[C@H](CCCCN)NC(=O)[C@@H](CCCNC(=N)N)NC(=O)[C@@H](CCCNC(=N)N)NC(=O)COCCOCCNC(=O)COCCOCCNC(=O)CC[C@H](NC(=O)CCCCCCCCCCCCCCCCCCC(=O)O)C(=O)O)C(=O)N[C@@H](CC(N)=O)C(=O)N[C@@H]([C@@H](C)O)C(=O)N[C@@H](C)C(=O)N[C@@H]([C@@H](C)O)C(=O)N1)[C@@H](C)O)C(=O)N[C@@H](CC(C)C)C(=O)N1CCC[C@H]1C(=O)N1CCC[C@H]1C(=O)N[C@H](C(=O)N[C@@H](CC(N)=O)C(=O)N[C@H](C(=O)NCC(=O)N[C@@H](CO)C(=O)N[C@@H](CO)C(=O)N[C@H](C(=O)N[C@@H](Cc1ccc(O)cc1)C(N)=O)[C@@H](C)O)C(C)C)[C@@H](C)O [Example 38, N-alpha-[2-(2-{2-[2-(2-{2-[(S)-4-Carboxy-4-(19-carboxyheptadecanoylamino)butyrylamino]ethoxy}ethoxy)acetylamino]ethoxy}ethoxy)acetyl]-D-Arg-D-Arg-[Glu14,His17,Arg18,Ala21,Ser35]-pramlintide] ({C20 diacid-γGlu-AEEA-AEEA}-[dR][dR]KCNTATCATQRLAEFLHRSSANFGPILPPTNVGSSTY-NH2; disulfide 4-9)
>45 |  | CC[C@H](C)[C@H](NC(=O)[C@@H]1CCCN1C(=O)CNC(=O)[C@H](Cc1ccccc1)NC(=O)[C@H](CC(N)=O)NC(=O)[C@H](CC(N)=O)NC(=O)[C@H](CO)NC(=O)[C@H](CO)NC(=O)[C@H](Cc1c[nH]cn1)NC(=O)[C@H](Cc1cnc[nH]1)NC(=O)[C@H](CC(C)C)NC(=O)[C@H](Cc1ccccc1)NC(=O)[C@H](CCC(=O)O)NC(=O)[C@H](C)NC(=O)[C@H](CC(C)C)NC(=O)[C@H](CCCNC(=N)N)NC(=O)[C@H](CCC(N)=O)NC(=O)[C@@H](NC(=O)[C@H](C)NC(=O)[C@@H]1CSSC[C@H](NC(=O)[C@H](CCCCN)NC(=O)CC[C@H](NC(=O)CCCCCCCCCCCCCCCCCCC(=O)O)C(=O)O)C(=O)N[C@@H](CC(N)=O)C(=O)N[C@@H]([C@@H](C)O)C(=O)N[C@@H](C)C(=O)N[C@@H]([C@@H](C)O)C(=O)N1)[C@@H](C)O)C(=O)N[C@@H](CC(C)C)C(=O)N1CCC[C@H]1C(=O)N1CCC[C@H]1C(=O)N[C@H](C(=O)N[C@@H](CC(N)=O)C(=O)N[C@H](C(=O)NCC(=O)N[C@@H](CO)C(=O)N[C@@H](CC(N)=O)C(=O)N[C@H](C(=O)N1CCC[C@H]1C(N)=O)[C@@H](C)O)C(C)C)[C@@H](C)O [Example 52, N-alpha-[(S)-4-Carboxy-4-(19-carboxynonadecanoylamino)butyryl]-[Glu14,His17,Pro37]-pramlintide] ({C20 diacid-γGlu}-KCNTATCATQRLAEFLHHSSNNFGPILPPTNVGSNTP-NH2; disulfide 2-7)
